# Results from US20110098352A1, “N,N-DISUBSTITUTED AMINOALKYLBIPHENYL ANTAGONISTS OF PROSTAGLANDIN D2 RECEPTORS” (AMIRA PHARMACEUTICALS, INC., priority 2008, published 2011).
# What was measured:
# human DP1 receptor = molecular target: T1, human DP1 receptor (Homo sapiens, UniProt Q13258); assay: DP1 radioligand membrane binding assay using [3H]BWA868C; settings: [3H]BWA868C binding, human platelet membranes; read-out: hDP1
# T1 construct: tissue Biological Specialty Corporation; host or cells: human platelets, membranes
# T1 sequence (Q13258 1-359): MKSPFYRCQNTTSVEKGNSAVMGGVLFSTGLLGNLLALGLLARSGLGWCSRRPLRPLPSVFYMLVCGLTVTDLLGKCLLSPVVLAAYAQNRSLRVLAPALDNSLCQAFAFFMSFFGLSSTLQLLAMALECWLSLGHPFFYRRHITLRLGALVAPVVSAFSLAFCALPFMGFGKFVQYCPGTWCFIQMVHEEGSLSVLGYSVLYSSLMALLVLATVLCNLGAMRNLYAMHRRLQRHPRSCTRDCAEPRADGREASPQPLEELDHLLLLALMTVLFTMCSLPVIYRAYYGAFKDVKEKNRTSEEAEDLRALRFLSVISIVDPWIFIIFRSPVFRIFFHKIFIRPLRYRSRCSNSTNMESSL
# Experimental: The ability of a compound to bind to the human DP1 receptor was evaluated via a radioligand membrane binding assay using the DP1 selective synthetic ligand [^3H]BWA868C. Packed human platelets (Biological Specialty Corporation), were resuspended in 6 volumes of Hepes/HBSS buffer (10 mM Hepes, 1 mM DTT in Hanks Balanced Salt Solution (HBSS)), lysed and centrifuged at 75,000×g to pellet the membranes. Membranes were resuspended in Hepes/HBSS buffer to approximately 12 mg protein/ml. Membranes (20 μg protein/well) are incubated in 96-well plates with 2 nM [^3H]BWA868C and test compound in Assay Buffer (50 mM Hepes, 10 mM MnCl2, 1 mM EDTA, plus or minus 0.2% human serum albumin, pH 7.4) for 60 minutes at room temperature. The reactions are terminated by rapid filtration through Whatman GF/C glass fibre filter plates. The filter plates were pre-soaked in […] polethylenimine for 30 minutes at room temperature then washed in Wash Buffer (50 mM Hepes, 0.5 M NaCl pH 7.4) prior to harvesting. After harvesting, the filter plates are washed 3 times with 1 ml cold Wash Buffer then dried. Scintillant is then added to the plates and the radioactivity retained on the filters is determined on a Packard TopCount (Perkin Elmer). Specific binding is determined as total radioactive binding minus non-specific binding in the presence of 10 μM BWA868C. IC50s were determined using GraphPad prism analysis of drug titration curves.
# human DP2 receptor = molecular target: T2, human DP2 receptor (Homo sapiens, UniProt Q9Y5Y4); assay: DP2/CRTH2 radioligand binding assay using [3H]PGD2; settings: [3H]PGD2 binding, membranes of HEK293 cells expressing recombinant human DP2; read-out: hDP2
# T2 construct: expressed in transfected cells
# T2 sequence (Q9Y5Y4 1-395): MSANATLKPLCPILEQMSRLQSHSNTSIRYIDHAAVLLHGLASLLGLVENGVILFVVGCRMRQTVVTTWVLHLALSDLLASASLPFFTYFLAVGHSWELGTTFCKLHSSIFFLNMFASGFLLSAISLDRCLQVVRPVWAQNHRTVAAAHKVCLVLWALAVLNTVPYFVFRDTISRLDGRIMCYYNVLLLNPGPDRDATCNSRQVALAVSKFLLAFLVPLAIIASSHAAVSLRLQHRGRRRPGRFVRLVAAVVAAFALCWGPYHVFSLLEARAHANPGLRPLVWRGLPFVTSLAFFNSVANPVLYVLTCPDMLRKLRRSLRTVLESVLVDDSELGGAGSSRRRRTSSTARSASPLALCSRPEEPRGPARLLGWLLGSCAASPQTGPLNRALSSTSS
# Experimental: The ability of a compound to bind to the human DP2 receptor is assessed via a radioligand binding assay using [^3H]PGD2. HEK293 cells stably expressing recombinant human DP2 are resuspended in 10 mM Hepes, 7.4 containing 1 mM DTT, lysed and centrifuged at 75,000×g to pellet the membranes. The membranes are resuspended in 10 mM Hepes, 7.4 containing 1 mM DTT and 10% glycerol to approximately 5 mg protein/ml. Membranes (2-10 μg protein/well) are incubated in 96-well plates with 1 nM [^3H]PGD2 and test compound in Assay Buffer (50 mM Hepes, 10 mM MnCl2, 1 mM EDTA, plus or minus 0.2% human serum albumin, pH 7.4) for 60 minutes at room temperature. The reactions are terminated by rapid filtration through Whatman GF/C glass fibre filter plates. The filter plates were pre-soaked in 0.33% polythylenimine for 30 minutes at room temperature then washed in Wash Buffer (50 mM Hepes, 0.5 M NaCl pH 7.4) prior to harvesting. After harvesting, the filter plates are washed 3 times with 1 ml cold Wash Buffer then dried. Scintillant is then added to the plates and the radioactivity retained on the filters is determined on a Packard TopCount (Perkin Elmer). Specific binding is determined as total radioactive binding minus non-specific binding in the presence of 10 μM PGD2. IC50s were determined using GraphPad prism analysis of drug titration curves.
# [1] = molecular target: T3, recombinant human CRTH2 receptor (Homo sapiens, UniProt Q9Y5Y4); assay: GTPγS binding assay; assay type: biochemical; settings: +HSA; CHO cell membranes, 80 nM PGD2; read-out: hDP2 GTPγS μM (+HSA)
# T3 construct: expressed in transfected cells
# T3 sequence (Q9Y5Y4 1-395): T2 sequence (Q9Y5Y4 1-395)
# Experimental: The ability of a compound to inhibit binding of GTP to DP2 is assessed via a membrane GTPγS assay. CHO cells stably expressing the recombinant human CRTH2 receptor are resuspended in 10 mM Hepes, 7.4 containing 1 mM DTT, lysed and centrifuged at 75,000×g to pellet the membranes. The membranes are resuspended in 10 mM Hepes, 7.4 containing 1 mM DTT and 10% glycerol. […] The reactions are terminated by rapid filtration through Whatman GF/B glass fibre filter plates. The filter plates are washed 3 times with 1 ml cold Assay Buffer and dried. Scintillant is then added to the plates and the radioactivity retained on the filters is determined on a Packard TopCount (Perkin Elmer). Specific binding is determined as total radioactive binding minus non-specific binding in the absence of the ligand (80 nM PGD2). IC50s were determined using Graphpad prism analysis of drug titration curves.
SMILES,IC50 (human DP1 receptor) [nM],IC50 (human DP2 receptor) [nM],IC50 [1] [µM]
"CCN(Cc1cc(C(F)(F)F)ccc1-c1cc(CC(=O)O)ccc1OC)C(=O)COc1ccc(Cl)cc1 [Compound 1-93, [2′-({[2-(4-Chloro-phenoxy)-acetyl]-ethyl-amino}-methyl)-6-methoxy-4′-trifluoromethyl-biphenyl-3-yl]-acetic acid]",> 1000,< 300,< 0.3
"CCN(Cc1cc(C(F)(F)F)ccc1-c1cc(CC(=O)O)ccc1OC)C(=O)NCc1ccccc1 [Compound 1-96, [2′-(3-Benzyl-1-ethyl-ureidomethyl)-6-methoxy-4′-trifluoromethyl-biphenyl-3-yl]-acetic acid]",> 1000,< 300,< 0.3
"COc1ccc(CC(=O)O)cc1-c1ccc(C(F)(F)F)cc1CN(C)C(C)=O [Compound 1-1, {2′-[(Acetyl-methyl-amino)-methyl]-6-methoxy-4′-trifluoromethyl-biphenyl-3-yl}-acetic acid]",> 1000,< 300,< 0.3
"COc1ccc(CC(=O)O)cc1-c1ccc(C(F)(F)F)cc1CN(C(C)=O)C1CC1 [Compound 1-12, {2′-[(Acetyl-cyclopropyl-amino)-methyl]-6-methoxy-4′-trifluoromethyl-biphenyl-3-yl}-acetic acid]",> 1000,< 300,< 0.3
CCOc1ccc(CC(=O)O)cc1-c1ccc(C(F)(F)F)cc1CN(CC)C(=O)OCc1ccccc1 [Compound 1-129],> 1000,< 300,< 0.3
"O=C(O)CCn1c2c(c3ccccc31)C[C@H](NS(=O)(=O)c1ccc(F)cc1)CC2 [Ramatroban, reference compound]",> 1000,300 to 1000,0.3 to 1
"CCN(Cc1cc(C(F)(F)F)ccc1-c1cc(CC(=O)O)ccc1OC)C(=O)C(C)C [Compound 1-246, {2′-[(Ethyl-isobutyryl-amino)-methyl]-6-methoxy-4′-trifluoromethyl-biphenyl-3-yl}-acetic acid]",,< 300,< 0.3
"CCN(Cc1cc(C(F)(F)F)ccc1-c1cc(CC(=O)O)ccc1OC)C(=O)OC [Compound 1-23, {2′-[(Ethyl-methoxycarbonyl-amino)-methyl]-6-methoxy-4′-trifluoromethyl-biphenyl-3-yl}-acetic acid]",> 1000,< 300,< 0.3
"CCN(Cc1cc(C(F)(F)F)ccc1-c1cc(CC(=O)O)ccc1OC)C(=O)NCc1cc(Cl)cc(Cl)c1 [Compound 1-165, {2′-[3-(3,5-Dichloro-benzyl)-1-ethyl-ureidomethyl]-6-methoxy-4′-trifluoromethyl-biphenyl-3-yl}-acetic acid]",> 1000,< 300,
"CCN(Cc1cc(F)ccc1-c1cc(CC(=O)O)ccc1OC)C(=O)OCc1ccccc1 [Compound 1-183, {2′-[(Benzyloxycarbonyl-ethyl-amino)-methyl]-4′-fluoro-6-methoxy-biphenyl-3-yl}-acetic acid]",> 1000,< 300,
"CCN(Cc1cc(C(F)(F)F)ccc1-c1cc(CC(=O)O)ccc1OC)C(=O)NCc1ccc(Cl)c(Cl)c1 [Compound 1-152, {2′-[3-(3,4-Dichloro-benzyl)-1-ethyl-ureidomethyl]-6-methoxy-4′-trifluoromethyl-biphenyl-3-yl}-acetic acid]",> 1000,< 300,
"CCN(Cc1cc(NS(C)(=O)=O)ccc1-c1cc(CC(=O)O)ccc1OC)C(=O)OCc1ccccc1 [Compound 1-155, {2′-[(Benzyloxycarbonyl-ethyl-amino)-methyl]-4′-methanesulfonylamino-6-methoxy-biphenyl-3-yl}-acetic acid]",> 1000,< 300,
"CCN(Cc1cc(C(F)(F)F)ccc1-c1cc(CC(=O)O)ccc1OC)C(=O)N[C@@H](C)c1ccc(Cl)cc1 [Compound 1-180, (2′-{3-[(S)-1-(4-Chloro-phenyl)-ethyl]-1-ethyl-ureidomethyl}-6-methoxy-4′-trifluoromethyl-biphenyl-3-yl)-acetic acid]",> 1000,< 300,
"CCN(Cc1cc(F)ccc1-c1cc(CC(=O)O)ccc1OC)C(=O)NCc1ccccc1 [Compound 1-187, [2′-(3-Benzyl-1-ethyl-ureidomethyl)-4′-fluoro-6-methoxy-biphenyl-3-yl]-acetic acid]",> 1000,< 300,
"CCN(Cc1cc(C(F)(F)F)ccc1-c1cc(CC(=O)O)ccc1OC)C(=O)NCc1cccc(Cl)c1 [Compound 1-177, {2′-[3-(3-Chloro-benzyl)-1-ethyl-ureidomethyl}-6-methoxy-4′-trifluoromethyl-biphenyl-3-yl}-acetic acid]",> 1000,< 300,
"CCN(Cc1cc(C(F)(F)F)ccc1-c1cc(CC(=O)O)ccc1OC)C(=O)NCc1ccc(F)cc1 [Compound 1-176, {2′-[1-Ethyl-3-(4-fluoro-benzyl)-ureidomethyl]-6-methoxy-4′-trifluoromethyl-biphenyl-3-yl}-acetic acid]",> 1000,< 300,
"CCN(Cc1cc(C(F)(F)F)ccc1-c1cc(CC(=O)O)ccc1O)C(=O)NCc1ccccc1 [Compound 1-220, [2′-(3-Benzyl-1-ethyl-ureidomethyl)-6-hydroxy-4′-trifluoromethyl-biphenyl-3-yl]-acetic acid]",,< 300,< 0.3
"CCN(Cc1cc(NC(C)=O)ccc1-c1cc(CC(=O)O)ccc1OC)C(=O)OCc1ccccc1 [Compound 1-153, {4′-Acetylamino-2′-[(benzyloxycarbonyl-ethyl-amino)-methyl]-6-methoxy-biphenyl-3-yl}-acetic acid]",> 1000,< 300,
"CCN(Cc1cc(F)ccc1-c1cc(CC(=O)O)ccc1OC)C(C)=O [Compound 1-184, {2′-[(Acetyl-ethyl-amino)-methyl]-4′-fluoro-6-methoxy-biphenyl-3-yl}-acetic acid]",> 1000,< 300,
"CCN(Cc1cc(F)ccc1-c1cc(CC(=O)O)ccc1OC)C(=O)NCc1ccc(Cl)cc1 [Compound 1-185, {2′-[3-(4-Chloro-benzyl)-1-ethyl-ureidomethyl]-4′-fluoro-6-methoxy-biphenyl-3-yl}-acetic acid]",> 1000,< 300,
